Usually ED50 stands for the dose at which the effect has come halfway, by size or by number of responders. Low values mean greater potency, high ones weaker potency.

The values that follow come from patent publication US20120220581A1, “IMIDAZO[1,2-b]PYRIDAZINE DERIVATIVES AND THEIR USE AS PDE10 INHIBITORS” (Janssen-Cilag, S.A., priority 2009, published 2012).

Like-named read-outs stand apart in the source and are kept apart here.

In experiment [1] the target is other members of the PDE family (Homo sapiens, UniProt O60658). Description: In vitro PDE selectivity assay (SPA), other members of the PDE family (protocols in Table A). The format is biochemical. Particulars: hPDE8A1; read-out: PDE 8A1 (expressed as pIC50) (converted). The procedure, abridged:
(§1)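 Inhibition of each PDE isoform was measured by scintillation proximity assay with ³H-cyclic nucleotide substrate, using incubation buffer, substrate concentration, incubation time and stop solution adapted per isoform. Compounds were tested in dose-response against 1% DMSO controls and enzyme-free blanks. IC50 came from a least-squares fit of blank-subtracted % of control versus concentration.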

Experiment [2] addresses other members of the PDE family (Homo sapiens, UniProt P16499+P35913). The description is as above. Format: biochemical. Particulars: hPDE6AB; read-out: PDE 6AB (expressed as pIC50) (converted). The method in brief: as §1
In a further experiment the target is PDE1B1 (Homo sapiens, UniProt Q01064). Briefly: In vitro PDE selectivity assay (SPA), PDE1B1. The format is biochemical. As to conditions: hPDE1B1; read-out: PDE 1B1 (expressed as pIC50) (converted).
PDE1B1, sequence (Q01064 whole entry, species assumed): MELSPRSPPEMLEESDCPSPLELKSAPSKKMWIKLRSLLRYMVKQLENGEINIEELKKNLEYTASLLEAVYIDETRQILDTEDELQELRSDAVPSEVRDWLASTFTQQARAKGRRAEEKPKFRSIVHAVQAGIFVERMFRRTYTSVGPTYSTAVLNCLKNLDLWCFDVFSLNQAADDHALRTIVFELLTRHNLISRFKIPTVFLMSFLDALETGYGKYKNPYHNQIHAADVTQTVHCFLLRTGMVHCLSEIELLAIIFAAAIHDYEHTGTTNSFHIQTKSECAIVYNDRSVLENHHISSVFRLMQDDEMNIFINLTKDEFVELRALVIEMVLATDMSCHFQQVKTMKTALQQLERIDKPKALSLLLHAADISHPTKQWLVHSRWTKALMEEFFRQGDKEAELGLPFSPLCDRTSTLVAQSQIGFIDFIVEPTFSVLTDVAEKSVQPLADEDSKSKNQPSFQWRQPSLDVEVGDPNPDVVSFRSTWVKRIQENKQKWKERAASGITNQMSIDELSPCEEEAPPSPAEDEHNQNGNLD
For experiment [3], the system named is female hooded-Lister rats. Briefly: Object recognition test (NOR) after sub-chronic PCP. The format is in vivo, rat. Particulars: Day 1, 3 min retention trial, mean.
Experiment [4] has as its system SCH-23390-induced hypolocomotion in mice. Description: SCH-23390-induced hypolocomotion in mice. The format is in vivo. As to conditions: Mus musculus. On the procedure:
SCH-23390 (0.08 mg/kg, i.v.)-induced hypolocomotion was evaluated over a 30-min period starting immediately after the SCH-23390 challenge in male NMRI mice pretreated 0.5 h earlier with test compound or solvent. Averaged activity in solvent-treated control mice was 1540±559 counts (mean±SD; n=103). Criterion for drug-induced reversal of the SCH-23390-induced hypolocomotion: total distance: >2500 counts (2.9% false positives in controls).

Experiment [5] has as its target T1, Rat recombinant PDE10A (rPDE10A2) (Rattus norvegicus, UniProt Q9QYJ6).
T1 construct: inferred from the Ni metal chelate purification; made in house; host or cells: Sf9 insect cells (baculovirus)
T1 sequence (Q9QYJ6 1-794): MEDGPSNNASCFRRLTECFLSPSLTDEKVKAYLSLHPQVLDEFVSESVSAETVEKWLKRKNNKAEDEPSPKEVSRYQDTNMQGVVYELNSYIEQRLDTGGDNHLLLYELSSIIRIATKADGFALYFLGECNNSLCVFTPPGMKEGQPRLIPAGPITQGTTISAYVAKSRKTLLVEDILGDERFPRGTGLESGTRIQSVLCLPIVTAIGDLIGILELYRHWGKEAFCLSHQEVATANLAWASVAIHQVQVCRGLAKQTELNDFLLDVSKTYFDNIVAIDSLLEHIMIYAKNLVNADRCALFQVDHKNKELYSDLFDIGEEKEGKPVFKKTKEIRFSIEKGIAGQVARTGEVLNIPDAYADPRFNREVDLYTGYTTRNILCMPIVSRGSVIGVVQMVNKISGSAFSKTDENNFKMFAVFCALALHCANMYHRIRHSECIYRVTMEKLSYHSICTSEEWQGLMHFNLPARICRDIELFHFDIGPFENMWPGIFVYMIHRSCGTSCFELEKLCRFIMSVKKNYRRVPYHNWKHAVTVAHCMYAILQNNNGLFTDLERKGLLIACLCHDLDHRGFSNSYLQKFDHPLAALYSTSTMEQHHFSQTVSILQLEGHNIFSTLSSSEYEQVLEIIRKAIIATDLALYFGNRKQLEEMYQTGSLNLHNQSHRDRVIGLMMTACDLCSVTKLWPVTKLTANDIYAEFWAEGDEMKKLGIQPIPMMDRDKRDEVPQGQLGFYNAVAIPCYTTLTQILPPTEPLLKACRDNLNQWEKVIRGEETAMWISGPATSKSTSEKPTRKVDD
Description: In vitro assay PDE10A (SPA, 3H-cAMP). Format: biochemical. The method in brief:
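Rat PDE10A2 expressed in Sf9 cells and Ni-purified; incubated with 60 nM cAMP plus 0.008 μCi 3H-cAMP in 50 mM Tris pH 7.8, 8.3 mM MgCl2, 1.7 mM EGTA for 60 min at room temperature. Product quantified by scintillation proximity counting; final DMSO 1%.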

other members of the PDE family (Homo sapiens, UniProt P16499+P35913), sequence (P16499 whole entry): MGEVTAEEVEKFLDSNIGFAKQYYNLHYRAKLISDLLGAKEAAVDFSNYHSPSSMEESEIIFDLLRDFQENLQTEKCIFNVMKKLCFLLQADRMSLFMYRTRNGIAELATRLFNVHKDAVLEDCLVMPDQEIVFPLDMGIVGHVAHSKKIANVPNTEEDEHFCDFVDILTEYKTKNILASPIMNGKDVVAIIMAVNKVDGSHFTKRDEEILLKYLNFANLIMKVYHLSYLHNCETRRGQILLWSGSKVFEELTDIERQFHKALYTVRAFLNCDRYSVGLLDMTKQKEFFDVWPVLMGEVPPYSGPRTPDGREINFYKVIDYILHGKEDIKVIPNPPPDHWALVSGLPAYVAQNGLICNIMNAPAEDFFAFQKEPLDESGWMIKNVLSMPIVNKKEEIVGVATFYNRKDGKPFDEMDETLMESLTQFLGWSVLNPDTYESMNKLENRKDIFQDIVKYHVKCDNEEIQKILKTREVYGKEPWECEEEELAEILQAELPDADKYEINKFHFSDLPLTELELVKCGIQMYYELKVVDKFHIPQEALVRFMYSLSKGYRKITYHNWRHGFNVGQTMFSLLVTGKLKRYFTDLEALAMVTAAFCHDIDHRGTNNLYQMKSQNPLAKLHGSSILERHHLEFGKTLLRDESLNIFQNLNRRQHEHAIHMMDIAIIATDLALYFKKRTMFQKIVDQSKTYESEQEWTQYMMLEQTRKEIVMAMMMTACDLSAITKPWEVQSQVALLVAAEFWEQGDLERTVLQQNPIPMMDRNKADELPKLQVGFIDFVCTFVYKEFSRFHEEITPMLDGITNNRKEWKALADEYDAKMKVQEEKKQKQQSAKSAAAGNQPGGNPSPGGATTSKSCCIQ
other members of the PDE family (Homo sapiens, UniProt P16499+P35913), sequence (P35913 whole entry): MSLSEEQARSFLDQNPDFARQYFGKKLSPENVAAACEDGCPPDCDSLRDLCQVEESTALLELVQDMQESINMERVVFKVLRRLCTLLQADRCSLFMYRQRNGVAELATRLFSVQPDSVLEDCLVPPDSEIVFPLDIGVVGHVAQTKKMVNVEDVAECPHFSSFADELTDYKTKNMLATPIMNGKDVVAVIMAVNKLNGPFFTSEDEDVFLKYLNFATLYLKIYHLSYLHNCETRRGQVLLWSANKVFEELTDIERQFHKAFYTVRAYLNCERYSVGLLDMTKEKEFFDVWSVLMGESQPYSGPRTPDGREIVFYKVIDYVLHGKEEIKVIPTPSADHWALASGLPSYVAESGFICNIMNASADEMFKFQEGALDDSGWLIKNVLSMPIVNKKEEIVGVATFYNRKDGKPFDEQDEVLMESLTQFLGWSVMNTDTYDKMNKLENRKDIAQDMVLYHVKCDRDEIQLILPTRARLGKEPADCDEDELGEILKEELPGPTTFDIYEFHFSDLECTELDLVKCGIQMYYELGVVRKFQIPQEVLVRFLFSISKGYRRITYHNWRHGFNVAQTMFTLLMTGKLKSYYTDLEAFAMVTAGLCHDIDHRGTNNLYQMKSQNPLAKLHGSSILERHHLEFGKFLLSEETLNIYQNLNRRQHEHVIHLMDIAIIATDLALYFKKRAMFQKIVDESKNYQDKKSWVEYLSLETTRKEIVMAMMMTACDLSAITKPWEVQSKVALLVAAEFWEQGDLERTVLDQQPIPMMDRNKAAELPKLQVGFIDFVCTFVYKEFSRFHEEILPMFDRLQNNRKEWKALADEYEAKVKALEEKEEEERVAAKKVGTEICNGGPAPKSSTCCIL
other members of the PDE family (Homo sapiens, UniProt O60658), sequence (O60658 whole entry, canonical isoform): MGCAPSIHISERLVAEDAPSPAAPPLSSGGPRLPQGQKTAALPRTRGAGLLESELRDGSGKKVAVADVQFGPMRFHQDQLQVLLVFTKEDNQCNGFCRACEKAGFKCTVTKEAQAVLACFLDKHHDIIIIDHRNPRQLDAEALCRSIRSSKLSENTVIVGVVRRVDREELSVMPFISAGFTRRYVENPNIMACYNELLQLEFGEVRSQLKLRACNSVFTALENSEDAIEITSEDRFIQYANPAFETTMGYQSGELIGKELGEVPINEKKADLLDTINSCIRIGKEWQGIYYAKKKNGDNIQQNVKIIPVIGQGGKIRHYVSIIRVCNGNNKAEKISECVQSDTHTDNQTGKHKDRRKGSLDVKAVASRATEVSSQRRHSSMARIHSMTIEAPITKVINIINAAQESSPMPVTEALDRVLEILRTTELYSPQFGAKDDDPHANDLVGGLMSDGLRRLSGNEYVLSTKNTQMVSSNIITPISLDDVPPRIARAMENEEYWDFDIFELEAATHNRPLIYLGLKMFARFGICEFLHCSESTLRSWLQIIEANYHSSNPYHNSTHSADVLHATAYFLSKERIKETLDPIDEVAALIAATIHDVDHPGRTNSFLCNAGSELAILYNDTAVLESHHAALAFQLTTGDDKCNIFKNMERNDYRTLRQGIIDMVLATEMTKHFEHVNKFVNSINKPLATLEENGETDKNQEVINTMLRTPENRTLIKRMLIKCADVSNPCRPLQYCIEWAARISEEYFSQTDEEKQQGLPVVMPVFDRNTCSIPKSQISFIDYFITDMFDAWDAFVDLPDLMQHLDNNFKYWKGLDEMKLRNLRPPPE

Turning to `COCCc1ccc(-c2c(C)nc3c(N4CCOCC4)ccnn23)cn1` [compound 1, 3-[6-(2-methoxyethyl)-3-pyridinyl]-2-methyl-8-(4-morpholinyl)-imidazo[1,2-b]pyridazine], the IC50 in experiment [1] is 77.6 µM; in experiment [2] it was 85.1 µM; on PDE1B1, 5.25 µM. For the same molecule, the “T2(A) exploration time of familiar object, retention trial” value in experiment [3] (PCP + 0.3 mg/kg p.o.) turned out to be 11.8 s; in experiment [3] (PCP + 1 mg/kg p.o.) it was 10.7 s. Also, the “T2(B) exploration time of novel object, retention trial” value in experiment [3] (PCP + 0.3 mg/kg p.o.) was 17.6 s; in experiment [3] (PCP + 1 mg/kg p.o.), 22.3 s. In addition, the 50% effect level in experiment [4] (ED50) was put at a dose of 7.1 mg/kg.

As for `COCCOc1ccc(-c2c(C)nc3c(-c4ccncc4)ccnn23)cn1` [compound 21, 3-[6-(2-methoxyethoxy)-3-pyridinyl]-2-methyl-8-(4-pyridinyl)-imidazo[1,2-b]pyridazine], the IC50 is 0.102 µM in experiment [5] (Table 4 in vitro selectivity, read-out: PDE 10A2 (expressed as pIC50) (converted)) and 0.102 µM in experiment [5] (pIC50 corresponds to the −log IC50 expressed in mol/L, read-out: PDE10A2 pIC50 (converted)). This molecule yielded an ED50 in experiment [4] of 5 mg/kg.
